Like-named read-outs stand apart in the source and are kept apart here. Residues, ends and D or L forms follow the SMILES beside them. No end group written: not given here.
What was measured:
HLA-DR4 (DRB*0401) = experiment: HLA-DR-peptide binding assay; set-up: species or system human
HLA-DR2 (DRB1*0201) = experiment: HLA-DR-peptide binding assay; set-up: species or system human
HLA-DR3 (DRB*0301) = experiment: HLA-DR-peptide binding assay; set-up: species or system human
HLA-DR1 (DRB*0101) = biological target: T1, HLA-DR1 (DRB*0101) (Homo sapiens, UniProt P01903+P01911, A100R/D57E/F55L/F60I/F76Y/I96L/L162R/M171V/P40L/Q125E/R42F/V115G/Y59C); experiment: biochemical; format: binding
T1 construct: endogenous in cells; host or cells: LG2.1 B-lymphoblastic cell line, homozygous for HLA-DR

HLA-DR 1, 2, 3, 4 and 7 = experiment: HLA-DR-peptide binding assay, summary over the molecules tested; set-up: species or system human; conditions: E7 peptides tested on HLA-DR 1, 2, 3, 4 and 7
Method: The analysis of peptide binding to purified DR molecules was performed using N-terminally fluorescence-labelled standard peptides.

HLA-DR7 (DRB1*0701) = HLA-DR7 (DRB1*0701) (Homo sapiens, UniProt P01903+P01911, A100R/A102G/A103Q/D57E/D86V/E43K/F76Y/K127E/L162R/M171V/P40G/Q125H/Q99D/R33Q/R42Y/R54Q/S133A/S66F/T210M/V115G/Y107V/Y59L/Y89S); conditions: read-out: Binding DR7, IC50
[1] = test system: HPV16 E2-specific Th-clones; experiment: HPV16 E2-specific Th-clones: peptide recognition; format: cell-based, human; conditions: clones from long-term E2 peptide stimulated healthy donor PBMC
Method: Long-term HPV16 E2-specific T-cell cultures and Th-clones were established according to previously described procedures (van der Burg et al. 1999). Briefly, PBMC from healthy HLA-typed donors were stimulated in vitro with the following HPV16 E2 peptides (E2271-300+E2286-315, E2301-330+E2316-345, E2331-365). 15×10^6 PBMC were seeded in 25 cm^2 culture flasks (Nalge Nunc, USA) in 6 ml IMDM supplemented with 10% autologous serum. Peptides were added at a concentration of 5 μg/ml. At day 7.15×10^6 PBMC were added, together with fresh medium and peptides. At day 14 and 21 viable T cells were harvested from the cultures, counted and restimulated with an equal amount of autologous irradiated PBMC and peptide (5 μg/ml). T-cell growth factor (Biotest, Dreieich, Germany) was added 2 days after restimulation at a final concentration of 10%. The T-cell cultures were tested for peptide recognition by proliferation assay at day 28. Peptide-specific T-cell cultures were cloned by limiting dilution and T-cell clones were subsequently tested for the recognition of E2-peptide and -protein-pulsed APC.
Specificity of the Th clones was analysed as described previously (Van der Burg et al. 1999). […] For measurement of proliferation, cultures were pulsed with […] [^3H] thymidine (5 μCi/mM, Amersham, UK) per well for 18 hours. Plates were harvested with a Micro cell Harvester (Skatron, Norway). Filters were packed in plastic covers containing 10 ml of scintillation fluid and subsequently counted on a 1205 Betaplate counter (Wallac, Turku, Finland). HLA-class II blocking experiments were performed using murine monoclonal antibodies: anti-DQ SPV. L3, anti-DR B8. 11.2, and anti-DP B7/21. Supernatants of the proliferation assays were harvested 24 hrs after incubation and analysed for the presence of IFN-γ by ELISA (van der Burg et al., 1999).

[2] = HPV16-E7 22-mer peptides, >70 indicates undetectable binding, read-out: Binding DR4, IC50
[3] = HPV16-E7 22-mer peptides, >70 indicates undetectable binding, read-out: Binding DR2, IC50
[4] = HPV16-E7 22-mer peptides, >70 indicates undetectable binding, read-out: Binding DR3, IC50

| Compound | IC50 (HLA-DR4 (DRB*0401); [2]) [µM] | IC50 (HLA-DR2 (DRB1*0201); [3]) [µM] | IC50 (HLA-DR3 (DRB*0301); [4]) [µM] | IC50 (HLA-DR1 (DRB*0101); read-out: Binding DR1, IC50) [µM] | IC50 (HLA-DR7 (DRB1*0701)) [µM] | recognition by E2-specific CD4+ Th clones and HLA restriction [1] | further results |
| --- | --- | --- | --- | --- | --- | --- | --- |
| CSCC[C@H](NC(=O)[C@H](Cc1ccc(O)cc1)NC(=O)[C@H](CCC(=O)O)NC(=O)[C@H](Cc1c[nH]cn1)NC(=O)[C@H](CC(C)C)NC(=O)[C@@H](NC(=O)[C@@H]1CCCN1C(=O)[C@@H](NC(=O)[C@H](CC(=O)O)NC(=O)CNC(=O)[C@H](Cc1c[nH]cn1)NC(=O)[C@@H](N)CCSC)[C@@H](C)O)[C@@H](C)O)C(=O)N[C@@H](CC(C)C)C(=O)N[C@@H](CC(=O)O)C(=O)N[C@@H](CC(C)C)C(=O)N[C@@H](CCC(N)=O)C(=O)N1CCC[C@H]1C(=O)N[C@@H](CCC(=O)O)C(=O)N[C@H](C(=O)N[C@H](C(=O)N[C@@H](CC(=O)O)C(=O)N[C@@H](CC(C)C)C(=O)O)[C@@H](C)O)[C@@H](C)O [E7 1-22] | 30 | 10 | 0.8 | > 70 | 7 | – | HLA-DR molecules bound (HLA-DR 1, 2, 3, 4 and 7): bound to HLA DR2, 3, 4 and 7 |
| CSCC[C@H](NC(=O)[C@@H](N)Cc1ccc(O)cc1)C(=O)N[C@@H](CC(C)C)C(=O)N[C@@H](CC(=O)O)C(=O)N[C@@H](CC(C)C)C(=O)N[C@@H](CCC(N)=O)C(=O)N1CCC[C@H]1C(=O)N[C@@H](CCC(=O)O)C(=O)N[C@H](C(=O)N[C@H](C(=O)N[C@@H](CC(=O)O)C(=O)N[C@@H](CC(C)C)C(=O)N[C@@H](Cc1ccc(O)cc1)C(=O)N[C@@H](CS)C(=O)N[C@@H](Cc1ccc(O)cc1)C(=O)N[C@@H](CCC(=O)O)C(=O)N[C@@H](CCC(N)=O)C(=O)N[C@@H](CC(C)C)C(=O)N[C@@H](CC(N)=O)C(=O)N[C@@H](CC(=O)O)C(=O)N[C@@H](CO)C(=O)N[C@@H](CO)C(=O)O)[C@@H](C)O)[C@@H](C)O [E7 11-32] | > 70 | > 70 | 50 | > 70 | > 70 | – | – |
| CC[C@H](C)[C@H](NC(=O)[C@H](CC(N)=O)NC(=O)[C@H](Cc1ccc(O)cc1)NC(=O)[C@@H](N)Cc1c[nH]cn1)C(=O)N[C@H](C(=O)N[C@H](C(=O)N[C@@H](Cc1ccccc1)C(=O)N[C@@H](CS)C(=O)N[C@@H](CS)C(=O)N[C@@H](CCCCN)C(=O)N[C@@H](CS)C(=O)N[C@@H](CC(=O)O)C(=O)N[C@@H](CO)C(=O)N[C@H](C(=O)N[C@@H](CC(C)C)C(=O)N[C@@H](CCCNC(=N)N)C(=O)N[C@@H](CC(C)C)C(=O)N[C@@H](CS)C(=O)N[C@H](C(=O)N[C@@H](CCC(N)=O)C(=O)N[C@@H](CO)C(=O)N[C@H](C(=O)O)[C@@H](C)O)C(C)C)[C@@H](C)O)[C@@H](C)O)C(C)C [E7 51-72] (H-HYNIVTFCCKCDSTLRLCVQST-OH; N-terminus and C-terminus assumed) | > 70 | > 70 | 50 | – | – | – | HLA-DR molecules bound (HLA-DR 1, 2, 3, 4 and 7): bound to DR1, 3 and 7 |
| CC[C@H](C)[C@H](NC(=O)[C@H](CC(=O)O)NC(=O)[C@@H](NC(=O)[C@H](Cc1c[nH]cn1)NC(=O)[C@@H](NC(=O)[C@H](CO)NC(=O)[C@H](CCC(N)=O)NC(=O)[C@@H](NC(=O)[C@H](CS)NC(=O)[C@H](CC(C)C)NC(=O)[C@H](CCCNC(=N)N)NC(=O)[C@H](CC(C)C)NC(=O)[C@@H](NC(=O)[C@H](CO)NC(=O)[C@H](CC(=O)O)NC(=O)[C@@H](N)CS)[C@@H](C)O)C(C)C)[C@@H](C)O)C(C)C)C(=O)N[C@@H](CCCNC(=N)N)C(=O)N[C@H](C(=O)N[C@@H](CC(C)C)C(=O)N[C@@H](CCC(=O)O)C(=O)N[C@@H](CC(=O)O)C(=O)N[C@@H](CC(C)C)C(=O)O)[C@@H](C)O [E7 61-82] (H-CDSTLRLCVQSTHVDIRTLEDL-OH; N-terminus and C-terminus assumed) | > 70 | 15 | 65 | > 70 | > 70 | – | – |
| CC[C@H](C)[C@H](NC(=O)CNC(=O)[C@H](CC(C)C)NC(=O)[C@@H](NC(=O)CNC(=O)[C@H](CCSC)NC(=O)[C@H](CC(C)C)NC(=O)[C@H](CC(C)C)NC(=O)[C@H](CC(=O)O)NC(=O)[C@H](CCC(=O)O)NC(=O)[C@H](CC(C)C)NC(=O)[C@@H](NC(=O)[C@@H](N)CCCNC(=N)N)[C@@H](C)O)[C@@H](C)O)C(=O)N[C@H](C(=O)N[C@@H](CS)C(=O)N1CCC[C@H]1C(=O)N[C@H](C(=O)N[C@@H](CS)C(=O)N[C@@H](CO)C(=O)N[C@@H](CCC(N)=O)C(=O)N[C@@H](CCCCN)C(=O)N1CCC[C@H]1C(=O)O)[C@@H](C)CC)C(C)C [E7 77-98] (H-RTLEDLLMGTLGIVCPICSQKP-OH; N-terminus and C-terminus assumed) | > 70 | 22 | > 70 | – | – | – | IC50 (HLA-DR1 (DRB*0101); read-out: Binding DR1, IC50, HPV16-E7 22-mer peptides, >70 indicates undetectable binding): 46 µM; HLA-DR molecules bound (HLA-DR 1, 2, 3, 4 and 7): bound to DR1, 2 and DR7; IC50 (HLA-DR7 (DRB1*0701); HPV16-E7 22-mer peptides, >70 indicates undetectable binding): 0.9 µM |
| DLYCYEQLNDSSEEEDEIDGPA [E7 21-42] | > 70 | 12 | > 70 | > 70 | > 70 | – | – |
| E2 51-70: Th epitope peptide, amino acids 51-70 of HPV16 E2 (FKHINHQVVPTLAVSKNKAL) | – | – | – | – | – | in a HLA-DR4 restricted manner | – |
| E2 61-75: Th epitope peptide, amino acids 61-75 of HPV16 E2 (TLAVSKNKALQAIEL; UniProt P03120 61-75, looked up, fragment) | – | – | – | – | – | reacted against | – |
| E2 311-325: Th epitope peptide, amino acids 311-325 of HPV16 E2 (LYTAVSSTWHWTGHN) | – | – | – | – | – | in the context of HLA-DQ6 (1) | – |
| E2 351-365: Th epitope peptide, amino acids 351-365 of HPV16 E2 (KIPKTITVSTGFMSI) | – | – | – | – | – | in a DR1-restricted manner | – |
| LRYRFKKHCTLYTAVSSTWHWTGHNVKHKS [E2 301-330] | – | – | – | – | – | both Th-clones recognized | IC50 (HLA-DR4 (DRB*0401); HPV16-E2 peptides, >70 represents undetectable binding, read-out: Binding affinity DR4, IC50): 10 µM; IC50 (HLA-DR2 (DRB1*0201); HPV16-E2 peptides, >70 represents undetectable binding, read-out: Binding affinity DR2, IC50): 8 µM; IC50 (HLA-DR3 (DRB*0301); HPV16-E2 peptides, >70 represents undetectable binding, read-out: Binding affinity DR3, IC50): > 70 µM; IC50 (HLA-DR1 (DRB*0101); HPV16-E2 peptides, >70 represents undetectable binding, read-out: Binding affinity DR1, IC50): 6 µM |
